{
  "source": "ChEMBL document CHEMBL3638618",
  "about": "“Uracil compound or salt thereof having human deoxyuridine triphosphatase inhibitory activity” (2013)",
  "target": "T1, Deoxyuridine 5'-triphosphate nucleotidohydrolase, mitochondrial (Homo sapiens, UniProt P33316)",
  "T1 sequence (P33316 whole entry)": "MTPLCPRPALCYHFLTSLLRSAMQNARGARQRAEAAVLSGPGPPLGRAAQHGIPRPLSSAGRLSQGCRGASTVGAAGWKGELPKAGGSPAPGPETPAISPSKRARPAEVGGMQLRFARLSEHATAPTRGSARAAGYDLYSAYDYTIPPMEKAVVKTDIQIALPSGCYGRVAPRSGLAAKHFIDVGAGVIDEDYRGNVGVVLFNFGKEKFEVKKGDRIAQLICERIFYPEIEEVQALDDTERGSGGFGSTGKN",
  "test": "Inhibition Assay: The inhibitory activity of the compound against human dUTPase was determined by measuring the production of [5-3H]deoxyuridine monophosphate from [5-3H]deoxyuridine triphosphate.",
  "note": "pIC50: −log10 of the molar value.",
  "data": [
    {"molecule": "C[C@@H](NS(=O)(=O)CCCOCn1ccc(=O)[nH]c1=O)c1cccc(OCCF)c1", "values": [
      {"measurement": "pIC50", "result": 6.39}
    ]}
  ]
}
